Measurements from patent publication US5998362A, “Conjugates useful in the treatment of prostate cancer” (priority 1997, dated 1999).
Where a SMILES comes first, the peptide text is derived from it. [ ]: non-standard residue; d: D form. The star is where a group is joined. Glyceroyl(2S) = O=C([C@@H](O)CO)*; hArg = N=C(N)NCCCC[C@H](N)C(=O)O; Chg = N[C@H](C(=O)O)C1CCCCC1; hSer = N[C@@H](CCO)C(=O)O; Nle = CCCC[C@H](N)C(=O)O; Glycolyl = O=C(CO)*; X3 = O=C(C(O)CO)*

molecular target: free PSA (Homo sapiens, UniProt P07288); assay: Recognition of oligopeptides by free PSA (time to 50% cleavage, HPLC); details: free psa
Sequence (P07288 25-261): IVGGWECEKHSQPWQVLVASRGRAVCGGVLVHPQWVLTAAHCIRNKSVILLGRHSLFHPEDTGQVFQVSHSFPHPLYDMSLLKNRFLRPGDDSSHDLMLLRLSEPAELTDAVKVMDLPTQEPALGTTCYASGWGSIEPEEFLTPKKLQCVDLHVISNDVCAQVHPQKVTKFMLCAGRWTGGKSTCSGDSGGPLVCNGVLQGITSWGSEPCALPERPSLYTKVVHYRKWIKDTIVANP
Experimental: The oligopeptides prepared as described in Example 1 were individually dissolved in PSA digestion buffer (12 mM tris(hydroxymethyl)-aminomethane pH8.0, 25 mM NaCl, 0.5 mM CaCl2) and the solution added to PSA at a molar ration of 100 to 1. The reaction is quenched after various reaction times by the addition of trifluoroacetic acid (TFA) to a final 1% (volume/volume). The quenched reaction was analyzed by HPLC on a reversed-phase C18 column using an aqueous 0.1% TFA/acetonitrile gradient. […] Oligopeptides containing free amine moieties (ie. comprising hArg, Orn, Lys and or 3PAL) were tested as TFA salts. All other oligopeptides were tested as neutral compounds.

Time to 50% Substrate Cleavage by York PSA (Min), values marked *	SMILES
25 min	CC(C)C[C@H](NC(=O)[C@H](CO)NC(=O)[C@H](CCC(N)=O)NC(=O)[C@@H](NC(=O)[C@H](CO)NC(=O)[C@H](CO)NC(=O)[C@H](CCCCNC(=N)N)NC(=O)[C@@H](O)CO)C1CCCCC1)C(=O)O [2(S)2,3-dihydroxypropionly-hRSSChgQ-SL-acid] ({Glyceroyl(2S)}-[hArg]SS[Chg]QSL-OH)
35 min	CC(C)C[C@H](NC(=O)[C@H](CO)NC(=O)[C@H](CCC(N)=O)NC(=O)[C@@H](NC(=O)[C@H](CCCCNC(=N)N)NC(=O)[C@H](CO)NC(=O)[C@@H](O)CO)C1CCCCC1)C(=O)O [2(S)-2,3-dihydroxy propionylShRChgQSL-acid] ({Glyceroyl(2S)}-S[hArg][Chg]QSL-OH)
30 min	CC(C)C[C@H](NC(=O)[C@H](CO)NC(=O)[C@H](CCC(N)=O)NC(=O)[C@@H](NC(=O)[C@H](CCCCNC(=N)N)NC(=O)[C@H](CO)NC(=O)CO)C1CCCCC1)C(=O)O [2-hydroxyacetyl-ShRChgQ-SL-acid] (Glycolyl-S[hArg][Chg]QSL-OH)

same assay, conditions: free psa, pH 8

Time to 50% Substrate Cleavage by York PSA	SMILES
75 min	CC(C)C[C@H](NC(=O)[C@H](CO)NC(=O)[C@H](CCC(N)=O)NC(=O)[C@@H](NC(=O)[C@H](CCCCNC(=N)N)NC(=O)[C@H](CO)NC(=O)C(O)CO)C1CCCCC1)C(=O)O (stereo partly drawn) [2,3-dihydroxypropionylShRChgQ-SL-acid] (X3-S[hArg][Chg]QSL-OH)
120 min	CC(C)C[C@H](NC(=O)[C@H](CO)NC(=O)[C@H](CCC(N)=O)NC(=O)[C@@H](NC(=O)[C@H](CCCCNC(=N)N)NC(=O)[C@H](CO)NC(=O)CO)C1CCCCC1)C(=O)O [2-hydroxyacetyl-ShRChgQ-SL-acid] (Glycolyl-S[hArg][Chg]QSL-OH)
70 min	CC(C)C[C@H](NC(=O)[C@H](CO)NC(=O)[C@H](CCC(N)=O)NC(=O)[C@@H](NC(=O)[C@H](CO)NC(=O)[C@H](C)NC(=O)[C@H](CCCCNC(=N)N)NC(=O)CO)C1CCCCC1)C(=O)O [2-hydroxyacetyl-hRASChgQ-SL-acid] (Glycolyl-[hArg]AS[Chg]QSL-OH)

Second part, the molecule before the results:

SMILES	Time to 50% Substrate Cleavage by York PSA
CC(C)C[C@H](NC(=O)[C@H](CO)NC(=O)[C@H](CCC(N)=O)NC(=O)[C@@H](NC(=O)[C@H](CO)NC(=O)[C@H](CO)NC(=O)CNC(=O)C(O)CO)C1CCCCC1)C(=O)O (stereo partly drawn) [2,3-dihydroxypropionyl-GSSChgQ-SL-acid] (X3-GSS[Chg]QSL-OH)	160 min
CC(C)C[C@H](NC(=O)[C@H](CO)NC(=O)[C@H](CCC(N)=O)NC(=O)[C@@H](NC(=O)[C@H](CO)NC(=O)[C@H](CO)NC(=O)[C@H](CO)NC(=O)C(O)CO)C1CCCCC1)C(=O)O (stereo partly drawn) [2,3-dihydroxypropionyl-SSSChgQ-SL-acid] (X3-SSS[Chg]QSL-OH)	120 min
CC(C)C[C@H](NC(=O)[C@H](CO)NC(=O)[C@H](CCC(N)=O)NC(=O)[C@@H](NC(=O)[C@H](CO)NC(=O)[C@H](CO)NC(=O)[C@H](CCCCNC(=N)N)NC(=O)C(O)CO)C1CCCCC1)C(=O)O (stereo partly drawn) [2,3-dihydroxypropionyl-hRSSChgQ-SL-acid] (X3-[hArg]SS[Chg]QSL-OH)	50 min
CC(C)C[C@H](NC(=O)[C@H](CO)NC(=O)[C@H](CCC(N)=O)NC(=O)[C@@H](NC(=O)[C@H](CO)NC(=O)[C@H](CO)NC(=O)[C@H](CCO)NC(=O)C(O)CO)C1CCCCC1)C(=O)O (stereo partly drawn) [2,3-dihydroxypropionyl-hSSSChgQ-SL-acid] (X3-[hSer]SS[Chg]QSL-OH)	160 min
CC(C)C[C@H](NC(=O)[C@H](CO)NC(=O)[C@H](CCC(N)=O)NC(=O)[C@@H](NC(=O)[C@H](CO)NC(=O)[C@H](CO)NC(=O)CO)C1CCCCC1)C(=O)O [2-hydroxyacetyl-SSChgQ-SL-acid] (Glycolyl-SS[Chg]QSL-OH)	180 min
CCCC[C@H](NC(=O)[C@H](CO)NC(=O)[C@H](CCC(N)=O)NC(=O)[C@H](Cc1ccc(O)cc1)NC(=O)[C@H](CO)NC(=O)[C@H](CO)NC(=O)[C@H](CCCCNC(=N)N)NC(=O)CO)C(=O)O [2-hydroxyacetyl-hRSSYQ-SNle-acid] (Glycolyl-[hArg]SSYQS[Nle]-OH)	45 min
